This passage reports solubility results from patent publication US20110281911A1, “NOVEL FORMS OF EPERISONE” (Bionevia Pharmaceuticals, Inc., priority 2008, published 2011).

The solubility is the dissolved amount per volume that the medium holds.

Where a name gives a salt, the structure may show the parent alone.

The data set is described as follows: Solubility in acetonitrile, calculated based on the total solvent used to give a solution. The format is physicochemical. The following applies: organic solvent or mixture, thermodynamic from solid.

On to `CCc1ccc(C(=O)C(C)CN2CCCCC2)cc1` (single isomer, unassigned) [substantially enantiopure crystalline eperisone hydrochloride, eperisone hydrochloride], for which the solubility is > 11 mg/mL.
